Laboratory results as given in PMC10745882, “Investigation of Drug-Interaction Potential for Arthritis Dietary Supplements: Chondroitin Sulfate, Glucosamine, and Methylsulfonylmethane” (Molecules, 2023).

How the values were obtained:
[1] = set-up: method as in doi:10.4172/2155-9600.1000748, PMID 16168682, PMID 19912983; details: common daily dose 1500 mg/day; cited from earlier work
CYP2E1 = tested on: CYP2E1; set-up: method as in PMID 20408500; details: related report; cited from earlier work
CYP1A2 = molecular target: T1, CYP1A2 (Homo sapiens, UniProt P05177); experiment: CYP inhibition assay in human liver microsomes (LC-MS/MS cocktail), phenacetin to acetaminophen; type: in vitro ADME
T1 construct: Pooled human liver microsomes were purchased from BD Gentest; tissue BD Gentest; host or cells: pooled human liver microsomes
T1 sequence (P05177 1-516): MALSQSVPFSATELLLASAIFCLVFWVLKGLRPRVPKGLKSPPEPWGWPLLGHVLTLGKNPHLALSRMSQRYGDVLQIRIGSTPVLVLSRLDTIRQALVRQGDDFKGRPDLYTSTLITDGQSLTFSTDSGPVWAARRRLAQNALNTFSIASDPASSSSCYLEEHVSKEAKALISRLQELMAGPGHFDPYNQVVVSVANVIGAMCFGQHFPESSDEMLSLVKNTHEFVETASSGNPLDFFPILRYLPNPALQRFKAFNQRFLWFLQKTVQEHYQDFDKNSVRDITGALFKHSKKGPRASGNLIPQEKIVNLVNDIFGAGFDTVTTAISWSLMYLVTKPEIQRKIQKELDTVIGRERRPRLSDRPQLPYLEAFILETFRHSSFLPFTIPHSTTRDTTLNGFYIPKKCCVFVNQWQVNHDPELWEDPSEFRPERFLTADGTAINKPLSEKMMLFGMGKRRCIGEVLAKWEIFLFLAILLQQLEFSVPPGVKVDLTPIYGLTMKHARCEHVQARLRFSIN
Method: (§1) For the experimental method, the reference method was used. Briefly, incubation mixtures were composed of 0.5 mg/mL human liver microsomes; varying concentrations of CS in DW (0.1, 0.3, 1, 3, 10, 30, 100, and 200 µM) or MSM in DW (0.1, 0.3, 1, 3, 10, 30, 100, 300, and 1000 µM) or GCS in DMSO (0.1, 0.3, 1, 3, 10, 30, 100, 300, and 1000 µM); a substrate mixture in DMSO (40 µM phenacetin for CYP1A2; 2.5 µM coumarin for CYP2A6; 80 µM bupropion for CYP2B6; 10 µM diclofenac for CYP2C9; 80 µM [±]-mephenytoin for CYP2C19; 5 µM dextromethorphan for CYP2D6; 2.5 µM midazolam and 30 µM testosterone for CYP3A4); and an NADPH generating system (NGS; 0.1 M glucose-6-phosphate, 10 mg/mL β-NADP^+, and 1 U/mL glucose-6-phosphate dehydrogenase) in a total volume of 200 µL potassium phosphate buffer (0.1 M, pH 7.4). The reaction mixture, excluding NGS, underwent pre-incubation at 37 °C for 5 min, followed by further incubation with NGS for 30 min in a water bath. Well-established selective CYP inhibitors were employed as positive controls (40 µM ketoconazole for CYP3A4, 50 µM furafyllin for CYP1A2, 10 µM quinidine for CYP2D6, 125 µM ticlopidine for CYP2C19 and CYP2B6, 10 µM 8-methoxsalen for CYP2A6, and 10 µM sulfaphenazole for CYP2C9). Post incubation, the reaction was halted by adding 50 µL ice-cold 1% formic acid acetonitrile. After centrifugation at 13,200 rpm for 5 min, the supernatant was collected from the sample and subjected to analysis via an LC-MS/MS system. All experiments were performed in triplicate.
(§2) For the experimental method, the reference method was used. The LC-MS/MS system utilized in this study consisted of an Agilent 1260 binary pump HPLC system coupled with the Agilent 6460 Triple Quadrupole mass spectrometer (Agilent Technologies, Santa Clara, CA, USA), featuring an electrospray ionization source. Chromatographic separation was achieved using a Fortis C8 column (2.1 × 100 mm, 5.0 µm; Fortis Technologies Ltd., Neston, UK). The HPLC mobile phases comprised (A) 0.1% formic acid and (B) 0.1% formic acid in 90% acetonitrile. A gradient elution method was employed with an initial solvent B concentration of 15% and a flow rate of 0.25 mL/min. […] The total run time was 11.0 min, and the injection volume was 5 µL. Mass detection was conducted in the positive ion mode using multiple reaction monitoring (MRM). Specific MRM transitions for each analyte are detailed in Table S4.

[2] = tested on: seven CYP isozymes (CYP1A2, CYP2A6, CYP2B6, CYP2C9, CYP2C19, CYP2D6, CYP3A4); experiment: CYP inhibition assay in human liver microsomes, statements on all tested isozymes; type: in vitro ADME
Method: as §1
For the experimental method, the reference method was used. The LC-MS/MS system utilized in this study consisted of an Agilent 1260 binary pump HPLC system coupled with the Agilent 6460 Triple Quadrupole mass spectrometer (Agilent Technologies, Santa Clara, CA, USA), featuring an electrospray ionization source. Chromatographic separation was achieved using a Fortis C8 column (2.1 × 100 mm, 5.0 µm; Fortis Technologies Ltd., Neston, UK). The HPLC mobile phases comprised (A) 0.1% formic acid and (B) 0.1% formic acid in 90% acetonitrile. […]

CYP2B6 = molecular target: T2, CYP2B6 (Homo sapiens, UniProt P20813); experiment: CYP inhibition assay in human liver microsomes (LC-MS/MS cocktail), bupropion to OH-bupropion; type: in vitro ADME
T2 construct: Pooled human liver microsomes were purchased from BD Gentest; tissue BD Gentest; host or cells: pooled human liver microsomes
T2 sequence (P20813 1-491): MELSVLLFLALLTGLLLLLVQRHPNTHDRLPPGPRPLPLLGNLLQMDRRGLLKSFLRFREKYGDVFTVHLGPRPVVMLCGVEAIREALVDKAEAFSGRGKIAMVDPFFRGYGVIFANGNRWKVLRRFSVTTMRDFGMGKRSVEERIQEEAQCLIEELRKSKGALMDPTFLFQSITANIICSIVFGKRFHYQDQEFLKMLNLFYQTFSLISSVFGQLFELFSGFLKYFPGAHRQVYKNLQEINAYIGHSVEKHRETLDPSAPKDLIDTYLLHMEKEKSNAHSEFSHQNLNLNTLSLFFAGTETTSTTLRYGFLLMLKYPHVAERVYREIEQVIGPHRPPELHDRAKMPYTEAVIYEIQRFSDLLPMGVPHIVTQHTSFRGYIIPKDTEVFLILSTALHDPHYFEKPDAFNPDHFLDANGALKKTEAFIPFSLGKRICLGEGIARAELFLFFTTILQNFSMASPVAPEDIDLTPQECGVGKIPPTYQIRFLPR
Method: as §1, §2

[3] = set-up: method as in PMID 25417766; details: rats; 1:4 (paracetamol:GCS) ratio; cited from earlier work
CYP2C9 = tested on: CYP2C9; set-up: method as in PMID 34821124, PMID 29488228; details: previous studies; cited from earlier work

For N[C@H]1C(O)O[C@H](CO)[C@@H](O)[C@@H]1O (stereo partly shown) [GCS, glucosamine], the maximum plasma concentrations [1] is listed as about 9 µM, the “inhibitory effect on CYP2E1” value (CYP2E1) is listed as “no inhibitory effect” and the “Remaining Activities (% of Control, n = 3)” value (CYP1A2; test substance 0.3 μM) is listed as 110.2 ± 20.5 % of Control. For the same compound, the “Remaining Activities (% of Control, n = 3)” value (CYP1A2; test substance 1 μM) was 103.1 ± 1.5 % of Control, the “Remaining Activities (% of Control, n = 3)” value (CYP1A2; test substance 3 μM) was 101.1 ± 7.5 % of Control and the “Remaining Activities (% of Control, n = 3)” value (CYP1A2; test substance 10 μM) was 94.2 ± 1.8 % of Control. The “Remaining Activities (% of Control, n = 3)” value (CYP1A2; test substance 30 μM) was 94.1 ± 3.0 % of Control, the “Remaining Activities (% of Control, n = 3)” value (CYP1A2; test substance 100 μM) was 97.2 ± 3.7 % of Control and the “Remaining Activities (% of Control, n = 3)” value (CYP1A2; test substance 300 μM) was 86.7 ± 2.8 % of Control. The “Remaining Activities (% of Control, n = 3)” value (CYP1A2; test substance 1000 μM) was 82.5 ± 12.0 % of Control, the “inhibitory effects on CYP1A2, CYP2A6, CYP2B6, CYP2C9, CYP2C19, CYP2D6, and CYP3A4” value [2] was “no inhibitory effects” and the “Remaining Activities (% of Control, n = 3)” value (CYP2B6; test substance 0.3 μM) was 121.0 ± 11.6 % of Control. The “Remaining Activities (% of Control, n = 3)” value (CYP2B6; test substance 1 μM) was 116.2 ± 5.8 % of Control, the “Remaining Activities (% of Control, n = 3)” value (CYP2B6; test substance 3 μM) was 114.3 ± 3.5 % of Control and the “Remaining Activities (% of Control, n = 3)” value (CYP2B6; test substance 10 μM) was 108.2 ± 3.1 % of Control. The “Remaining Activities (% of Control, n = 3)” value (CYP2B6; test substance 30 μM) was 107.8 ± 1.3 % of Control, the “Remaining Activities (% of Control, n = 3)” value (CYP2B6; test substance 100 μM) was 111.2 ± 2.3 % of Control and the “Remaining Activities (% of Control, n = 3)” value (CYP2B6; test substance 300 μM) was 105.6 ± 1.8 % of Control. For the same compound, the “Remaining Activities (% of Control, n = 3)” value (CYP2B6; test substance 1000 μM) was 103.5 ± 9.2 % of Control, the “paracetamol's AUC when co-administered with GCS” value [3] was “increase” and the “paracetamol's maximum plasma concentration when co-administered with GCS” value [3] was “increase”. The “inhibitory effects on CYP2C9” value (CYP2C9) was “no inhibitory effects”.
